Assays:
Assay type in all cases: in vivo
[1] = test system: prickly sida (Sida spinosa L.); test: Test Example 4: soil treatment, prickly sida pot test; details: read-out: Growth inhibition rate of prickly sida (%) Measured value
Protocol: (§1) Upland field soil was put into a 1/300,000 ha pot, and seeds of prickly sida (Sida spinosa L.) were sown. On the next day, predetermined amounts of the above formulations respectively containing nicosulfuron, prosulfuron, dicamba and bicyclopyrone were diluted with water (in an amount corresponding to 1,000 L/ha) and applied for soil treatment by a small sprayer.

[2] = test system: ivy-leaved morningglory (Ipomoea hederacea (L.) Jacq.); test: Test Example 7: soil treatment, ivy-leaved morningglory pot test; details: read-out: Growth inhibition rate of ivy-leaved morningglory (%) Measured value
Protocol: as §1, with “ivy-leaved morningglory (Ipomoea hederacea (L.) Jacq.)” for “prickly sida (Sida spinosa L.)”, “prosulfuron” for “prosulfuron, dicamba”

[3] = test system: korean lespedeza (Kummerowia stipulacea (Maxim.) Makino); test: Test Example 8: soil treatment, korean lespedeza pot test; details: read-out: Growth inhibition rate of korean lespedeza (%) Measured Value
Protocol: as §1, with “korean lespedeza (Kummerowia stipulacea (Maxim.) Makino)” for “prickly sida (Sida spinosa L.)”, “prosulfuron” for “prosulfuron, dicamba”

[4] = test system: velvetleaf (Abutilon theophrasti Medic.); test: Test Example 11: foliar treatment, velvetleaf pot test; details: read-out: Growth inhibition rate of velvetleaf (%) Measured value
Protocol: Upland field soil was put into a 1/1,000,000 ha pot, and seeds of velvetleaf (Abutilon theophrasti Medic.) were sown. When the velvetleaf reached 5.0 to 5.3-leaf stage, predetermined amounts of the above formations respectively containing nicosulfuron, prosulfuron, dicamba, bromoxynil-octanoate and bicyclopyrone were diluted with water (in an amount corresponding to 300 L/ha) and applied for foliar treatment by a small sprayer.

[5] = test system: black nightshade (Solanum nigrum L.); test: Test Example 5: soil treatment, black nightshade pot test; details: 28th day after treatment, read-out: Growth inhibition rate of black nightshade (%) Measured value
Source text: Upland field soil was put into a 1/300,000 ha pot, and seeds of black nightshade (Solanum nigrum L.) were sown. […] On the 28th day after treatment, the state of growth of the black nightshade was visually observed to determine the growth inhibition rate (%).

[6] = test system: annual ragweed (Ambrosia artemisiifolia L.); test: Test Example 6: soil treatment, annual ragweed pot test; details: 28th day after treatment, read-out: Growth inhibition rate of annual ragweed (%) Measured value
Protocol: as §1, with “annual ragweed (Ambrosia artemisiifolia” for “prickly sida (Sida spinosa”, “prosulfuron” for “prosulfuron, dicamba”, “bromoxynil-octanoate” for “bicyclopyrone”

[7] = test system: common lespedeza (Lespedeza striata (Thunb.) Hook. et Arn.); test: Test Example 10: foliar treatment, common lespedeza pot test; details: Kummerowia striata, foliar treatment at 4.0-leaf stage, 14th day after treatment, read-out: Growth inhibition rate of common lespedeza (%) Measured value
Protocol: (§2) Upland field soil was put into a 1/1,000,000 ha pot, and seeds of common lespedeza (Lespedeza striata (Thunb.) Hook. et Arn.) were sown. When the common lespedeza reached 4.0-leaf stage, predetermined amounts of the above formulations respectively containing nicosulfuron, prosulfuron and dicamba were diluted with water (in an amount corresponding to 300 L/ha) and applied for foliar treatment by a small sprayer.

[8] = test system: sunn-hemp (Crotalaria juncea L.); test: Test Example 1: soil treatment, sunn-hemp pot test; details: 28th day after treatment, read-out: Growth inhibition rate of sunn-hemp (%) Measured value
Source text: On the 28th day after treatment, the state of growth of the sunn-hemp was visually observed to determine the growth inhibition rate (%) in accordance with the following evaluation standard. The growth inhibition rate (%) (measured value) and the growth inhibition rate (%) (calculated value) calculated by the Colby's formula are shown in Table 1.

[9] = test system: wild oat (Avena fatua L.); test: Test Example 2: soil treatment, wild oat pot test; details: 28th day after treatment, read-out: Growth inhibition rate of wild oat (%) Measured value
Source text: (§3) Upland field soil was put into a 1/300,000 ha pot, and seeds of wild oat (Avena fatua L.) were sown. […] On the 28th day after treatment, the state of growth of the wild oat was visually observed to determine the growth inhibition rate (%).

[10] = test system: wild oat (Avena fatua L.); test: Test Example 3: soil treatment, wild oat pot test; details: 28th day after treatment, read-out: Growth inhibition rate of wild oat (%) Measured value
Source text: as §3

[11] = test system: annual ragweed (Ambrosia artemisiifolia L.); test: Test Example 9: foliar treatment, annual ragweed pot test; details: foliar treatment at 6.0 to 8.0-leaf stage, 14th day after treatment, read-out: Growth inhibition rate of annual ragweed (%) Measured value
Protocol: as §2, with “annual ragweed (Ambrosia artemisiifolia L.)” for “common lespedeza (Lespedeza striata (Thunb.) Hook. et Arn.)”, “annual ragweed” for “common lespedeza”, “6.0 to 8.0-leaf” for “4.0-leaf”, “mesotrione” for “dicamba”
On the 14th day after treatment, the state of growth of the annual ragweed was visually observed to determine the growth inhibition rate (%). The growth inhibition rate (%) (measured value) and the growth inhibition rate (%) calculated in the same manner as in the above Test Example 1 are shown in Table 9.

[12] = soil treatment, 28th day after treatment
[13] = dose 100 g/ha, soil treatment, 28th day after treatment
[14] = dose 2.5 g/ha, soil treatment, 28th day after treatment

**Q.** With COCCOCc1nc(C(F)(F)F)ccc1C(=O)C1=C(O)C2CCC(C2)C1=O (centres unmarked) [Bicyclopyrone, 4-hydroxy-3-{2-[(2-methoxyethoxy)methyl]-6-(trifluoromethyl)-3-pyridylcarbonyl}bicyclo[3.2.1]oct-3-en-2-one] as the compound, how does the inhibition at 25 g/ha ([1]; soil) read?
**A.** 25%

**Q.** What about the inhibition at 25 g/ha ([2]; soil) of the same compound?
**A.** 5%

**Q.** What about the inhibition at 400 g/ha ([2]; soil) of the same compound?
**A.** 25%

**Q.** What about the inhibition at 400 g/ha ([3]; soil) of the same compound?
**A.** 78%

**Q.** And the inhibition at 100 g/ha ([4]; foliar)?
**A.** 40%

**Q.** Which results are given for CCCCCCCC(=O)Oc1c(Br)cc(C#N)cc1Br [Bromoxynil-octanoate, bromoxynil-octanoate]?
**A.** inhibition at 100 g/ha ([5]; dose 100 g/ha): 0%; inhibition at 500 g/ha ([5]; dose 500 g/ha): 0%; inhibition at 100 g/ha [6]: 0%; inhibition at 200 g/ha ([6]; dose 200 g/ha): 0%; inhibition at 500 g/ha ([6]; dose 500 g/ha): 0%; inhibition at 200 g/ha ([4]; dose 200 g/ha, foliar treatment at 5.0 to 5.3-leaf stage, 20th day after treatment): 5%

**Q.** Which results are given for COc1c(Cl)ccc(Cl)c1C(=O)O [Dicamba, dicamba]?
**A.** inhibition at 50 g/ha [1, 12]: 0%; inhibition at 150 g/ha ([1]; dose 150 g/ha, soil treatment, 28th day after treatment): 20%; inhibition at 400 g/ha ([1]; dose 400 g/ha, soil treatment, 28th day after treatment): 40%; inhibition at 100 g/ha ([7]; dose 100 g/ha): 23%; inhibition at 150 g/ha ([7]; dose 150 g/ha): 50%; inhibition at 150 g/ha ([4]; dose 150 g/ha, foliar treatment at 5.0 to 5.3-leaf stage, 20th day after treatment): 8%

**Q.** Which results are given for CS(=O)(=O)c1ccc(C(=O)C2C(=O)CCCC2=O)c([N+](=O)[O-])c1 [Mesotrione, 2-(4-mesyl-2-nitrobenzoyl)cyclohexane-1,3-dione]?
**A.** inhibition at 150 g/ha ([8]; dose 150 g/ha): 30%; inhibition at 25 g/ha ([9]; dose 25 g/ha): 0%; inhibition at 150 g/ha ([9]; dose 150 g/ha): 0%; inhibition at 50 g/ha ([10]; dose 50 g/ha): 0%; inhibition at 75 g/ha ([11]; dose 75 g/ha): 25%

**Q.** For COc1cc(OC)nc(NC(=O)NS(=O)(=O)c2ncccc2C(=O)N(C)C)n1 [Nicosulfuron, 2-(4,6-dimethoxypyrimidin-2-ylcarbamoylsulfamoyl)-N,N-dimethylnicotinamide], which inhibition at 10 g/ha ([8]; dose 10 g/ha) is on record?
**A.** 30%

**Q.** What about the inhibition at 100 g/ha ([9]; dose 100 g/ha) of the same compound?
**A.** 80%

**Q.** And the inhibition at 30 g/ha ([10]; dose 30 g/ha)?
**A.** 70%

**Q.** And the inhibition at 10 g/ha ([1]; dose 10 g/ha, soil treatment, 28th day after treatment)?
**A.** 10%

**Q.** What about the inhibition at 30 g/ha ([1]; dose 30 g/ha, soil treatment, 28th day after treatment) of the same compound?
**A.** 10%

**Q.** What about the inhibition at 100 g/ha [1, 13] of the same compound?
**A.** 20%

**Q.** And the inhibition at 10 g/ha ([5]; dose 10 g/ha)?
**A.** 20%

**Q.** And the inhibition at 30 g/ha ([6]; dose 30 g/ha)?
**A.** 0%

**Q.** What about the inhibition at 100 g/ha [6] of the same compound?
**A.** 0%

**Q.** What about the inhibition at 10 g/ha ([2]; dose 10 g/ha, soil treatment, 14th day after treatment) of the same compound?
**A.** 0%

**Q.** What about the inhibition at 100 g/ha [3, 13] of the same compound?
**A.** 30%

**Q.** And the inhibition at 30 g/ha ([11]; dose 30 g/ha)?
**A.** 0%

**Q.** And the inhibition at 30 g/ha ([7]; dose 30 g/ha)?
**A.** 5%

**Q.** With COc1nc(C)nc(NC(=O)NS(=O)(=O)c2ccccc2CCC(F)(F)F)n1 [Prosulfuron, 1-(4-methoxy-6-methyl-1,3,5-triazin-2-yl)-3-[2-(3,3,3-trifluoropropyl)phenylsulfonyl]urea] as the compound, how does the inhibition at 50 g/ha ([8]; dose 50 g/ha) read?
**A.** 60%

**Q.** And the inhibition at 2.5 g/ha ([9]; dose 2.5 g/ha)?
**A.** 0%

**Q.** And the inhibition at 15 g/ha ([10]; dose 15 g/ha)?
**A.** 0%

**Q.** And the inhibition at 2.5 g/ha [1, 14]?
**A.** 20%

**Q.** And the inhibition at 15 g/ha ([1]; dose 15 g/ha, soil treatment, 28th day after treatment)?
**A.** 20%

**Q.** And the inhibition at 50 g/ha [1, 12]?
**A.** 40%

**Q.** What about the inhibition at 50 g/ha ([5]; dose 50 g/ha) of the same compound?
**A.** 20%

**Q.** What about the inhibition at 2.5 g/ha ([6]; dose 2.5 g/ha) of the same compound?
**A.** 78%

**Q.** And the inhibition at 15 g/ha ([6]; dose 15 g/ha)?
**A.** 93%

**Q.** And the inhibition at 50 g/ha ([2]; dose 50 g/ha, soil treatment, 14th day after treatment)?
**A.** 50%

**Q.** What about the inhibition at 2.5 g/ha [3, 14] of the same compound?
**A.** 50%

**Q.** What about the inhibition at 10 g/ha ([11]; dose 10 g/ha) of the same compound?
**A.** 55%

**Q.** What about the inhibition at 15 g/ha ([11]; dose 15 g/ha) of the same compound?
**A.** 53%

**Q.** And the inhibition at 10 g/ha ([7]; dose 10 g/ha)?
**A.** 10%

**Q.** What about the inhibition at 15 g/ha ([7]; dose 15 g/ha) of the same compound?
**A.** 13%

Reference: patent US9380783B2, “Herbicidal composition” (priority 2012, dated 2016)
